Drawing on ChEMBL document CHEMBL2074506, “Effects of ursodeoxycholic and cholic acid feeding on hepatocellular transporter expression in mouse liver” (Gastroenterology, 2001), this text covers Activity for one molecule.

Type in all cases: functional, organism-based
The target of data set [1] is T1, ATP-binding cassette sub-family C member 2 (Mus musculus, UniProt Q8VI47). Nature of the data set: TP_TRANSPORTER: Western (protein level: increase to 350%) in vivo, liver of Him OF1 mouse.
Data set [2] has as its target T1, ATP-binding cassette sub-family C member 2. Nature of the data set: TP_TRANSPORTER: RT-PCR (mRNA level: 3 fold) in vivo, liver of Him OF1 mouse.
Data set [3] addresses T2, ATP-dependent translocase ABCB1 (Mus musculus, UniProt P21447). Nature of the data set: TP_TRANSPORTER: Western (protein level: increase to 220%) in vivo, liver of Him OF1 mouse.
Data set [4] concerns the target T2, ATP-dependent translocase ABCB1. Nature of the data set: TP_TRANSPORTER: RT-PCR (mRNA level: 2 fold) in vivo, liver of Him OF1 mouse.
Data set [5] has as its target T3, Solute carrier organic anion transporter family member 1A1 (Mus musculus, UniProt Q9QXZ6).
T3 sequence (Q9QXZ6 whole entry): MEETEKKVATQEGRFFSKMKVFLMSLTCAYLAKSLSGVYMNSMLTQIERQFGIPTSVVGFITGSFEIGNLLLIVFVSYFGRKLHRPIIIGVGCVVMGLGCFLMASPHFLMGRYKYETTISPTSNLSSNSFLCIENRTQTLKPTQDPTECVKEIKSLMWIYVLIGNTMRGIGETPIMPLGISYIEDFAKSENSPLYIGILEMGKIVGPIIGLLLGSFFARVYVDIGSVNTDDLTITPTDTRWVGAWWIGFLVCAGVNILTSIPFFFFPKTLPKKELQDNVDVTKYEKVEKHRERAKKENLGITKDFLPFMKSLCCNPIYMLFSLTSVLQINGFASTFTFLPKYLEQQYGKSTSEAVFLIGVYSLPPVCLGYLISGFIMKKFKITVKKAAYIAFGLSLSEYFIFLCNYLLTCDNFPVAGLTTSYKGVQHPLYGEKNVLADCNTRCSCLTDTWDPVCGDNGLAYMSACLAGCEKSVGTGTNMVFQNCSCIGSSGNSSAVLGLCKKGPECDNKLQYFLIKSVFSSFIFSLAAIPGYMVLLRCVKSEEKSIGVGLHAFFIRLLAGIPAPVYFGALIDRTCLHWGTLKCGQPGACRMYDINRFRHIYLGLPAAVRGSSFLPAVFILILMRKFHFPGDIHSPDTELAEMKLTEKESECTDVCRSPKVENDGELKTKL
In words: TP_TRANSPORTER: Western (protein level: reduction to 45% of control) in vivo, liver of Him OF1 mouse.

In data set [6] the target is T3, Solute carrier organic anion transporter family member 1A1. In words: TP_TRANSPORTER: RT-PCR (mRNA level: reduction to 72 % of control) in vivo, liver of Him OF1 mouse.

T1 sequence (Q8VI47 whole entry): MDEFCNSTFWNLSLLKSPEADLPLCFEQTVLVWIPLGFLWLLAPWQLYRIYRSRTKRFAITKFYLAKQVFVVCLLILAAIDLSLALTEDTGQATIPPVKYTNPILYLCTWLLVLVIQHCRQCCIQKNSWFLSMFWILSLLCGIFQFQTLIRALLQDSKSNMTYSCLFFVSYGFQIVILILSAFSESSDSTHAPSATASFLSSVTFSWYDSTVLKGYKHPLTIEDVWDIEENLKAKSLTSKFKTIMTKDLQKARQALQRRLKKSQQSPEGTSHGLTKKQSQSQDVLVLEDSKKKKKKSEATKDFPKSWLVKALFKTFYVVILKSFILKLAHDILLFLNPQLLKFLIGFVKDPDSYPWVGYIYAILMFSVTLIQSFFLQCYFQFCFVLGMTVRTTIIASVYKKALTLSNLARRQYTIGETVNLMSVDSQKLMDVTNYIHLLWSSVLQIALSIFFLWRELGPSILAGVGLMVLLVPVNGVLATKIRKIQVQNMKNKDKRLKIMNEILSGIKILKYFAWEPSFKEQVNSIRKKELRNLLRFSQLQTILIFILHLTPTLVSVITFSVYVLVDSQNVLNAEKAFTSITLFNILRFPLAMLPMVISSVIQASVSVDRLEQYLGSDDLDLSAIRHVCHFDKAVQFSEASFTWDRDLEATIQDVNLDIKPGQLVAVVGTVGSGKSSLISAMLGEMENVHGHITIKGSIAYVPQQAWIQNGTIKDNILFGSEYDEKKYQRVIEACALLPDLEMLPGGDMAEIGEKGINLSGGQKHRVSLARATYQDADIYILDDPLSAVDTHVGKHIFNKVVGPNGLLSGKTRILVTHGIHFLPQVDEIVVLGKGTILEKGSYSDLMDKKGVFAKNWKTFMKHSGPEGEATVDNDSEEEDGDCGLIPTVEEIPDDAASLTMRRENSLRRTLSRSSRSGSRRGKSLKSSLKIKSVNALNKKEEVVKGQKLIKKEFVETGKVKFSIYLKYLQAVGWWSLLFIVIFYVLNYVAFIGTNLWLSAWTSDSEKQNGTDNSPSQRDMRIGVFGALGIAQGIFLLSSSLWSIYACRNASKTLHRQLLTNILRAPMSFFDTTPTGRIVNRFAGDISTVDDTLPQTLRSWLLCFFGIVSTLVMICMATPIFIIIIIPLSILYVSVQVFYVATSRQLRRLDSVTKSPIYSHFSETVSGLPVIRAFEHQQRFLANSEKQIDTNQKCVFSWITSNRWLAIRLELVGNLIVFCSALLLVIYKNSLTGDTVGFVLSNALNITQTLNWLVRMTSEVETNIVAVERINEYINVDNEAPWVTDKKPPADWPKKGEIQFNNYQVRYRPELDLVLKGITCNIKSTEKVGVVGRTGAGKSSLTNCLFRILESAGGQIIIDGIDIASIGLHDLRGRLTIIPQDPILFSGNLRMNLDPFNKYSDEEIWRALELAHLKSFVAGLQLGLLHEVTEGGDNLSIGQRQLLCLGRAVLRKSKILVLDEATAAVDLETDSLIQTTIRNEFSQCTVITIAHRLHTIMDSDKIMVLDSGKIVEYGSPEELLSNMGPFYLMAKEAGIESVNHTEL
T2 sequence (P21447 whole entry): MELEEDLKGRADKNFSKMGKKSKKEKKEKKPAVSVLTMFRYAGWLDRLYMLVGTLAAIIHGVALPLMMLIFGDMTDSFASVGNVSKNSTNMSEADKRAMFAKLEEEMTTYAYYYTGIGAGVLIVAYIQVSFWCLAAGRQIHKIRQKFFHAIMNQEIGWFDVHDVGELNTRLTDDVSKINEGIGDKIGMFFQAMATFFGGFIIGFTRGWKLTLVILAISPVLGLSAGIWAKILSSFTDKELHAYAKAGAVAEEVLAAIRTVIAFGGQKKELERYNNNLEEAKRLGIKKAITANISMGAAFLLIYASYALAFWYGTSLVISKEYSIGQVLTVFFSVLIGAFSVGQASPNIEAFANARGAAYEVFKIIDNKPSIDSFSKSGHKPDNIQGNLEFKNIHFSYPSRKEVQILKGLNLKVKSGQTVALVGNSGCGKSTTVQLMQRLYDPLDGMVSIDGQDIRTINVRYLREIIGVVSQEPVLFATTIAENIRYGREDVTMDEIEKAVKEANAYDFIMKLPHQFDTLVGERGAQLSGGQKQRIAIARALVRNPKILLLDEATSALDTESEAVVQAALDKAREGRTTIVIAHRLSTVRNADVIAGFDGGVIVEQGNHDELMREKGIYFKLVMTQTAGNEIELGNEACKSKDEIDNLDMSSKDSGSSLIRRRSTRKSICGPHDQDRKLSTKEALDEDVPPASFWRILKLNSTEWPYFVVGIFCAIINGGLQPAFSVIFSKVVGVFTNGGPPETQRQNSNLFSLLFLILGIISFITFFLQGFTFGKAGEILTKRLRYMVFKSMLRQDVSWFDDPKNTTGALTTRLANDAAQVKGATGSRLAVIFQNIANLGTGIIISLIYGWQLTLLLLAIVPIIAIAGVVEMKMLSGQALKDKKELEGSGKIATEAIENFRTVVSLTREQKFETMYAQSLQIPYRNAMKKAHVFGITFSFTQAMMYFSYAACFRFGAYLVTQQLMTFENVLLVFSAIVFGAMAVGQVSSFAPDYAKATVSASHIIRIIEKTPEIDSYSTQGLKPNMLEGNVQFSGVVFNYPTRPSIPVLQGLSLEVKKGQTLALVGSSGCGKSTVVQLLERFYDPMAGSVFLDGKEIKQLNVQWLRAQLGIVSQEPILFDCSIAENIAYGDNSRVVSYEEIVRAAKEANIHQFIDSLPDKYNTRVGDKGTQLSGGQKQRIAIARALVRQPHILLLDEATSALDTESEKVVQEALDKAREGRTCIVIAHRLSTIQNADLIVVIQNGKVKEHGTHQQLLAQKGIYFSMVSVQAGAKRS

Take `C[C@H](CCC(=O)O)[C@H]1CC[C@H]2[C@@H]3[C@@H](O)C[C@@H]4C[C@H](O)CC[C@]4(C)[C@H]3CC[C@]12C` [URSODIOL]: the Activity entry in data set [1] is “inducer [+]”; in data set [2], “inducer [+]”; in data set [3], “inducer [+]”; in data set [4], “inducer [+]”; in data set [5], “inducer [Decrease]”; in data set [6], “inducer [Decrease]”.
